Data reported in patent US20250057989A1, “TMEM-MCD IN THE MINIMALLY INVASIVE ASSESSMENT OF THE ACTIVITY STATUS OF TMEM IN ITS DISSEMINATION OF TUMOR CELLS” (Albert Einstein College of Medicine, priority 2018, published 2025).
Entries after “also recorded” stand apart in the source; their conditions may differ.

Tests used:
circulating tumor cells = conditions: mice with breast cancer, chemotherapy-induced, oral administration; cited from earlier work
tumor cells = conditions: mouse models of breast cancer; cited from earlier work
TMEM [1] = assay: TMEM-MRI test (Uth) in PyMT mouse model, control vs rebastinib; assay type: in vivo; conditions: mice, FIGS. 2-3
Source text: FIGS. 3A-3E. Evaluation of TMEM-MRI assay sensitivity and its values as a companion diagnostic is illustrated by using TMEM-MRI to detect the effect of the commercially available TMEM inhibitor Rebastinib in PyMT mouse model. FIG. 3A depicts a schematic illustration and cohort composition of the MMTV-PyMT Control vs Rebastinib (Ctrl-Reb) transplantation model. FIG. 3B is a chart depicting upper threshold ratio (Uth) of Ctrl-and rebastinib (Reb)-treated tumors. FIG. 3C depicts extravascular dextran assay, showing TMEM association with leaky (lower row), but no association of TMEM with non-leaky (upper row) blood vessel. FIG. 3D is a chart depicting the comparison between extravascular dextran leakiness between Ctrl and Reb-treated tumors. FIG. 3E is a chart depicting circulating tumor cells in mice treated with rebastinib or vehicle control. […]
A new assay for TMEM activity has been developed and validated. […] Using intravenously injected Gd-DTPA, in a dynamic and quantitative assessment allowing assessment of the change in tissue permeability induced by TMEM, with adequate temporal and spatial resolution, the permeability change associated with the TMEM occurrence can be measured with high spatial resolution. […] TMEM facilitated increase in tissue diffusion, measured using the apparent diffusion constant or using Diffusion Tensor Imaging (DTI) may also be developed to detect TMEM. […]

TMEM [2] = conditions: mice with breast cancer, oral administration; cited from earlier work
TMEM function (CTCs) = assay: Clinical trial NCT02824575: oral rebastinib to inhibit TMEM function (CTCs) in breast cancer patients; assay type: in vivo, human

Q: With `CNC(=O)c1cc(Oc2ccc(NC(=O)Nc3cc(C(C)(C)C)nn3-c3ccc4ncccc4c3)c(F)c2)ccn1` [rebastinib, 4-[4-[(5-tert-butyl-2-quinolin-6-ylpyrazol-3-yl)carbamoylamino]-3-fluorophenoxy]-N-methylpyridine-2-carboxamide] as the compound, how does the “cancer cell dissemination (circulating tumor cells in the blood, CTCs)” value (circulating tumor cells) read?
A: inhibited

Q: What about the “dissemination of tumor cells” value (tumor cells) of the same compound?
A: prevents dissemination of tumor cells

Q: What about the “TMEM activity detected by TMEM-MRI test” value (TMEM [1]) of the same compound?
A: inhibition of TMEM activity

Q: And the “chemotherapy-induced TMEM activity (multiphoton imaging of the burst)” value (TMEM [2])?
A: inhibited

Q: What about the “tumor cell dissemination (CTCs) in patients” value (TMEM function (CTCs)) of the same compound?
A: prevents dissemination of tumor cells; also recorded: most patients achieved complete inhibition of tumor cell dissemination
